Patent US20240374573A1, “IMIDAZOLE CONTAINING COMPOUNDS, DERIVATIVES THEREFORE, AND USES THEREOF” (AglaeaPharma Inc., priority 2023, published 2024)
pEC50, pKi: −log10 of the molar value.

Assays:
[1] = target: T1, α2AAR (α2A-adrenergic receptor) (Homo sapiens, UniProt P08913); test: α2AAR FLIPR assay (agonist activity); type: cell-based; conditions: FLIPR, α2AAR cell line hosted in HEK293 cells; read-out: α2A agonist activity (EC50)
T1 construct: expressed in transfected cells; host or cells: HEK293
T1 sequence (P08913 1-465): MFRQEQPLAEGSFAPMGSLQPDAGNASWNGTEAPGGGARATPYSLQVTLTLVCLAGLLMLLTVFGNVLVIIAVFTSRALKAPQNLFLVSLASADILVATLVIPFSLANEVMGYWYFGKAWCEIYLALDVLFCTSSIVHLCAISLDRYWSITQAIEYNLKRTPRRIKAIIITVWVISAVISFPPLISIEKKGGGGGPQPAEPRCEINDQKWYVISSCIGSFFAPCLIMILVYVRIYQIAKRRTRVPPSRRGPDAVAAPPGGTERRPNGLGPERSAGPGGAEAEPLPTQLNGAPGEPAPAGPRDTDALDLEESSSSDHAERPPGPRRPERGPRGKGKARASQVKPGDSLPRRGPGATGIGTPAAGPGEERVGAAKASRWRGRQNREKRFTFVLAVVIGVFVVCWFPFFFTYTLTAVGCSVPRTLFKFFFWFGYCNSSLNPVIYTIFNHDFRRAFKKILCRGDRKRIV
Procedure: This experimental protocol involved cell seeding and a FLIPR assay using the α2AAR (α2A-adrenergic receptor) cell line hosted in HEK293 cells. […] On Day 1, the cell seeding process started with the removal of the culture medium, followed by rinsing the cells with DPBS (21-031-CVC, Corning). […] The cells were detached, resuspended in growth media, and centrifuged at room temperature at 1000 rpm for 5 minutes. After discarding the supernatant, the cell pellet was resuspended in growth media to a concentration of 10× 10^5 cells per mL. This suspension was added to 384-well plates (19-Jul-38, Greiner) at 20 μL per well and incubated overnight at 37° C. in 5% CO2.
A 250 mM Probenecid solution was prepared in this buffer. The Fluo-4 Direct™ Loading Buffer was made by dissolving Fluo-4 Direct™ crystals (F10471, Invitrogen) in the FLIPR Assay Buffer and adding Probenecid. The buffer was then vortexed and allowed to stand for over 5 minutes, shielded from light. For the FLIPR procedure, testing compounds for agonist activite were serially diluted and transferred to a 384-well compound plate (25-Jan-39, Greiner). The cell plate was then treated with 2× Fluo-4 Direct™ loading buffer and incubated for 50 minutes at 37° C. in a 5% CO2 atmosphere, followed by 10 minutes at room temperature. Subsequently, the FLIPR assay buffer was added to the compound plate, which is then centrifuged.
The cell plate was analyzed in the FLIPR Tetra+ System for fluorescence signals. For the agonist test, reference compounds were added to the cell plates, and fluorescence was measured. The “Max-Min” calculation began from Read 1 to the maximum allowed. The data were analyzed using Prism software to calculate activation percentage for agonists and inhibition percentage for antagonists. The results were then fitted using specific models to determine EC50 for agonists.
The experimental protocol utilized various reagents and apparatus, including Penicillin/Streptomycin (100×) (SV30010, Hyclone), Poly-L-lysine hydrobromide (P1399, Sigma), and different types of 384-well plates such as the 384-Well PP 2.0 Microplate (PP-0200, LABCYTE) and 384 well Low Dead Volume Microplate (LP-0200, LABCYTE). The use of specific reference compounds like UK14304 was also integral to the assay.

[2] = target: T2, α2AAR (Homo sapiens, UniProt P08913); test: α2AAR binding assay ([3H]-RX 821002 radioligand); conditions: [3H]-RX 821002 0.5 nM, HEK293 membranes; read-out: α2A affinity (Ki)
T2 construct: host or cells: HEK293 (membranes)
T2 sequence (P08913 1-465): T1 sequence (P08913 1-465)

Row | Structure (SMILES) | pEC50 [1] | pKi [2]
1 | Cc1cccc(C(c2c[nH]cn2)c2cccc(C(=O)NOC3CCOCC3)n2)c1C (stereo not drawn) [compound 152] | 7.30 to 8.00 | > 8.00
2 | Cc1cccc(C(c2cccc(NC(=O)CC3CCCO3)c2)c2c[nH]cn2)c1C (stereo not drawn) [compound 153] | 7.30 to 8.00 | 7.30 to 8.00
3 | Cc1cccc(C(Cc2ccc(NC(=O)C3CCOCC3)cc2)c2c[nH]cn2)c1C (stereo not drawn) [compound 157] | > 8.00 | > 8.00
4 | Cc1cn(-c2cccc(C(c3c[nH]cn3)c3cccc(C)c3C)c2)nn1 (stereo not drawn) [compound 160] | 7.30 to 8.00 | 7.30 to 8.00
5 | Cc1cccc(C(c2cccc(NC(=S)CC3CCOCC3)c2)c2c[nH]cn2)c1C (stereo not drawn) [compound 161] | 7.30 to 8.00 | > 8.00
6 | Cc1cccc(C(c2cccc(S(=O)(=O)NC3CCOCC3)c2)c2c[nH]cn2)c1C (stereo not drawn) [compound 162] | 7.30 to 8.00 | > 8.00
7 | Cc1cccc(C(c2cccc(-c3cnnn3C)c2)c2c[nH]cn2)c1C (stereo not drawn) [compound 164] | 7.30 to 8.00 | 7.30 to 8.00
8 | Cc1cccc(C(c2cccc(NS(=O)(=O)C[C@H]3CCCO3)c2)c2c[nH]cn2)c1C (stereo partly drawn) [compound 166] | 7.30 to 8.00 | 7.30 to 8.00
9 | COP(=O)(CC1CCOCC1)Nc1cccc(C(c2c[nH]cn2)c2cccc(C)c2C)c1 (stereo not drawn) [compound 167] | 7.30 to 8.00 | 7.30 to 8.00
10 | Cc1cccc(C(Cc2ccc(NC(=O)CC3CCCCO3)cc2)c2c[nH]cn2)c1C (stereo not drawn) [compound 169] | > 8.00 | > 8.00
11 | Cc1cccc(C(Cc2ccc(NC(=O)CC3CCOC3)cc2)c2c[nH]cn2)c1C (stereo not drawn) [compound 171] | > 8.00 | > 8.00
12 | Cc1cccc(C(Cc2ccc(C(C)C(=O)O)cc2)c2c[nH]cn2)c1C (stereo not drawn) [compound 174] | 7.30 to 8.00 | 6.60 to 7.30
13 | Cc1cccc(C(Cc2ccc(C(=O)O)cc2)c2c[nH]cn2)c1C (stereo not drawn) [compound 175] | 7.30 to 8.00 | 6.00 to 6.60
14 | Cc1cccc(C(Cc2ccc(NC(=O)CC3CCCO3)cc2)c2c[nH]cn2)c1C (stereo not drawn) [compound 176] | > 8.00 | > 8.00
15 | Cc1cccc(C(Cc2ccc(C(=O)NC3CCOCC3)cc2)c2c[nH]cn2)c1C (stereo not drawn) [compound 177] | > 8.00 | 7.30 to 8.00
16 | Cc1cccc(C(Cc2ccc(S(=O)(=O)NC3COC3)cc2)c2c[nH]cn2)c1C (stereo not drawn) [compound 179] | > 8.00 | > 8.00
17 | Cc1cccc(C(c2cccc(NC(=O)N3CCCCC3)c2)c2c[nH]cn2)c1C (stereo not drawn) [compound 180] | 7.30 to 8.00 | 7.30 to 8.00
18 | Cc1cccc(C(Cc2ccc(NC(=O)CC3CCCCC3)cc2)c2c[nH]cn2)c1C (stereo not drawn) [compound 181] | 6.60 to 7.30 | > 8.00
19 | CNC(=O)c1ccc(CC(c2c[nH]cn2)c2cccc(C)c2C)cc1F (stereo not drawn) [compound 192] | 7.30 to 8.00 | > 8.00
20 | CC(=O)Nc1ccc(CC(c2c[nH]cn2)c2cccc(C)c2C)cc1F (stereo not drawn) [compound 193] | 7.30 to 8.00 | > 8.00
21 | COC(=O)Nc1ccc(CC(c2c[nH]cn2)c2cccc(C)c2C)cc1 (stereo not drawn) [compound 194] | 7.30 to 8.00 | > 8.00
22 | COCC(=O)Nc1ccc(CC(c2c[nH]cn2)c2cccc(C)c2C)cc1 (stereo not drawn) [compound 195] | 7.30 to 8.00 | > 8.00
23 | Cc1cccc(C(Cc2ccc3c(c2)OCCO3)c2c[nH]cn2)c1C (stereo not drawn) [compound 196] | 6.60 to 7.30 | > 8.00
24 | Cc1cccc(C(Cc2ccc(C(=O)O)c(F)c2)c2c[nH]cn2)c1C (stereo not drawn) [compound 197] | 7.30 to 8.00 | 6.60 to 7.30
25 | Cc1cccc(C(Cc2ccc(NC(=O)NC3CCOC3)cc2)c2c[nH]cn2)c1C (stereo not drawn) [compound 198] | 7.30 to 8.00 | > 8.00
26 | Cc1cccc(C(c2c[nH]cn2)c2cccc(-c3cnnn3C)c2F)c1C (stereo not drawn) [compound 201] | 7.30 to 8.00 | > 8.00
27 | CNc1ccc(CC(c2c[nH]cn2)c2cccc(C)c2C)cc1 (stereo not drawn) [compound 203] | 6.60 to 7.30 | > 8.00

Row | Structure (SMILES) | pEC50 [1] | pKi [2]
28 | Cc1cccc(C(Cc2ccc(C(=O)NS(=O)(=O)c3ccccc3)cc2)c2c[nH]cn2)c1C (stereo not drawn) [compound 204] | 6.60 to 7.30 | 6.60 to 7.30
29 | Cc1cccc(C(Cc2ccc(CC(=O)O)cc2)c2c[nH]cn2)c1C (stereo not drawn) [compound 206] | 6.60 to 7.30 | 6.60 to 7.30
30 | Cc1cccc(C(Cc2ccc(NC3CCOCC3)cc2)c2c[nH]cn2)c1C (stereo not drawn) [compound 207] | 7.30 to 8.00 | > 8.00
31 | Cc1cccc(C(Cc2ccc(-c3cnnn3C)cc2)c2c[nH]cn2)c1C (stereo not drawn) [compound 209] | 7.30 to 8.00 | > 8.00
32 | Cc1cccc(C(Cc2ccc(-c3nnn[nH]3)cc2)c2c[nH]cn2)c1C (stereo not drawn) [compound 210] | 6.60 to 7.30 | 7.30 to 8.00
33 | Cc1cn(-c2ccc(CC(c3c[nH]cn3)c3cccc(C)c3C)cc2)nn1 (stereo not drawn) [compound 211] | 7.30 to 8.00 | > 8.00
34 | Cc1cccc(C(Cc2ccc(NC(=S)C3CCOCC3)cc2)c2c[nH]cn2)c1C (stereo not drawn) [compound 212] | 7.30 to 8.00 | > 8.00
35 | Cc1cccc(C(Cc2ccc(C(=O)O)c(O)c2)c2c[nH]cn2)c1C (stereo not drawn) [compound 218] | 7.30 to 8.00 | 6.60 to 7.30
36 | Cc1cccc(C(c2cccc(-c3cnnn3C3CCOCC3)c2)c2c[nH]cn2)c1C (stereo not drawn) [compound 220] | > 8.00 | > 8.00
37 | Cc1cccc(C(Cc2ccc(S(=O)(=O)O)cc2)c2c[nH]cn2)c1C (stereo not drawn) [compound 221] | 7.30 to 8.00 | 7.30 to 8.00
38 | CC(=O)N(C)c1ccc(CC(c2c[nH]cn2)c2cccc(C)c2C)cc1 (stereo not drawn) [compound 222] | 7.30 to 8.00 | 7.30 to 8.00
39 | Cc1cccc(C(Cc2ccc(O)c(O)c2)c2c[nH]cn2)c1C (stereo not drawn) [compound 223] | 7.30 to 8.00 | > 8.00
40 | COc1ccc(CC(c2c[nH]cn2)c2cccc(C)c2C)cc1OC (stereo not drawn) [compound 224] | > 8.00 | > 8.00
41 | Cc1cccc(C(Cc2ccc3c(c2)OCC(=O)N3)c2c[nH]cn2)c1C (stereo not drawn) [compound 225] | > 8.00 | > 8.00
42 | COc1cc(CC(c2c[nH]cn2)c2cccc(C)c2C)cc(OC)c1OC (stereo not drawn) [compound 226] | > 8.00 | > 8.00
43 | Cc1cccc(C(Cc2ccc(C(C)c3nnn[nH]3)cc2)c2c[nH]cn2)c1C (stereo not drawn) [compound 227] | 7.30 to 8.00 | 7.30 to 8.00
44 | Cc1cccc(C(Cc2ccc(N(C)C(=O)N(C)C)cc2)c2c[nH]cn2)c1C (stereo not drawn) [compound 228] | > 8.00 | > 8.00
45 | Cc1cccc(C(Cc2ccc(C(=O)NCC(=O)O)cc2)c2c[nH]cn2)c1C (stereo not drawn) [compound 229] | 7.30 to 8.00 | 6.60 to 7.30
46 | Cc1cccc(C(Cc2ccc3c(c2)CCC(=O)N3)c2c[nH]cn2)c1C (stereo not drawn) [compound 230] | 7.30 to 8.00 | > 8.00
47 | CNc1cccc(CC(c2c[nH]cn2)c2cccc(C)c2C)c1 (stereo not drawn) [compound 231] | 7.30 to 8.00 | 7.30 to 8.00
48 | Cc1cccc(C(Cc2ccc(S(C)(=O)=O)cc2)c2c[nH]cn2)c1C (stereo not drawn) [compound 232] | > 8.00 | > 8.00
49 | Cc1cccc(C(Cc2ccc(C(=O)NC3CCOCC3)c(O)c2)c2c[nH]cn2)c1C (stereo not drawn) [compound 233] | 7.30 to 8.00 | 7.30 to 8.00
50 | Cc1cccc(C(Cc2ccc(NC(=O)C3CCO3)cc2)c2c[nH]cn2)c1C (stereo not drawn) [compound 234] | 7.30 to 8.00 | > 8.00
51 | Cc1cccc(C(Cc2ccc3c(c2)OCCN3)c2c[nH]cn2)c1C (stereo not drawn) [compound 235] | 7.30 to 8.00 | > 8.00
52 | Cc1cccc(C(Cc2ccc(C(=O)NCCC(=O)O)cc2)c2c[nH]cn2)c1C (stereo not drawn) [compound 236] | 7.30 to 8.00 | 6.60 to 7.30
53 | CNC(=O)Nc1ccc(CC(c2c[nH]cn2)c2cccc(C)c2C)cc1 (stereo not drawn) [compound 237] | 7.30 to 8.00 | > 8.00
54 | Cc1cccc(C(Cc2ccc(OCC(=O)O)cc2)c2c[nH]cn2)c1C (stereo not drawn) [compound 239] | 7.30 to 8.00 | 6.60 to 7.30
